Reference: PMC7829355, “Antimicrobial Activity of Lipopeptide Biosurfactants Against Foodborne Pathogen and Food Spoilage Microorganisms and Their Cytotoxicity” (Frontiers in Microbiology, 2021)
In brackets after ≈: the same amount, converted by molar mass. Several values for one entry are separate records, joined by “and”; a condition that tells them apart may be missing. Identical values can stand only once. Like-named read-outs stand apart in the source and are kept apart here.

Columns and labels:
[1] = tested on: Rhizopus stolonifer IMI 017314; assay: Antifungal susceptibility against filamentous fungi, broth microdilution; format: cell-based
Protocol: (§1) In this set of experiments, Candida krusei ATCC 6258 and amphotericin B were used to perform quality control tests for validation. As mentioned above, the test medium used was RPMI-1640 broth with MOPS buffer. Tests were performed in U-shaped 96-well plates in triplicates and the OD450nm was recorded after 7 days of incubation at 30°C. The fungi tested were Rhizopus stolonifer IMI 017314 and Paecilomyces variotii and Byssochamys fulva IMI 040021.

Paecilomyces variotii = assay: as above; format: cell-based
Protocol: as §1

[2] = tested on: Byssochamys fulva IMI 040021; assay: as above; format: cell-based, Byssochlamys fulva
Protocol: as §1

Candida krusei ATCC 6258 = assay: Antifungal susceptibility against yeast, broth microdilution in RPMI-1640; format: cell-based; details: for MIC: Pichia kudriavzevii, ATCC6258, C. krusei, RPMI-1640 liquid media
Protocol: The antifungal susceptibility test against yeasts was performed according to the broth microdilution method, as described previously ([Urbañski et al., 2002]; [Schwalbe et al., 2007]). Candida krusei ATCC 6258 was used as the quality control organism, to verify that antifungal concentrations were prepared properly. In addition, amphotericin B, an effective antifungal antibiotic produced by Streptomyces nodosus and part of the WHO List (World Health Organization) of Essential Medicines, was used as a reference compound. The test medium used was RPMI-1640 (with glutamine, without bicarbonate and with a pH indicator) broth with [3-(N-morpholino)]-propanesulfonic acid (MOPS) buffer. All tests were performed in U-shaped 96-well plates. Three technical replicates of each assay were carried out on the same day with the same culture and chemical compound with the aforementioned experiment repeated also in triplicate on different days using different cultures (biological replicates) resulting in a total of nine replicates for each assay. The yeasts tested were Zygosaccharomyces bailli NCYC 464 and Debaryomyces hansenii NCYC 102.

Gram-positive bacteria = assay: Antibacterial broth microdilution MIC, summary over Gram-positive strains; format: cell-based; details: range over the Gram-positive strains; read-out: MICs for Gram-positive bacteria
[3] = tested on: Pseudomonas aeruginosa NCTC 10332; assay: Antibacterial susceptibility, broth microdilution MIC; format: cell-based; details: 24 h
Protocol: (§2) The antibacterial susceptibility testing was performed following the broth microdilution methodology, as described previously ([Schwalbe et al., 2007]), against both Gram-negative and Gram-positive foodborne pathogens and spoilage bacteria. The bacteria used were: Pseudomonas aeruginosa NCTC 10332, Salmonella enterica NCTC 5188, Escherichia coli K-12, Bacillus cereus MR59, Listeria monocytogenes 10403S, Carnobacterium divergens NCFB 2763, Leuconostoc mesenteroides NCIMB 08023, and Brochothrix thermosphacta NCDO 1676.
(§3) Two-fold dilutions were performed and 100 μL of each dilution was placed in each column of a flat bottomed 96-well plate. One column of the plate contained only the growth medium and served as the positive control while in another column contained 200 μL of the growth medium with the highest concentration of the lipopeptide tested (1,000 mg/L) and served as the negative control. Apart from the column that served as the negative control, the rest of the wells were inoculated with 100 μL of the bacterial culture tested. For the bacterial suspension preparation, cultures were incubated overnight in the appropriate medium (MHB or TSB). Bacterial density was adjusted to 0.5 McFarland and suspensions were subsequently diluted 1000 times using the growth test medium. The 96-well plates were then incubated at either 30or 37°C, depending on the optimal growth temperature of each microorganism, for 24 h and the OD620nm was assessed. The minimum inhibitory concentration (MIC) was defined as the lowest concentration of the antimicrobial agent tested that prevented any discernible growth after 24 h incubation.

Escherichia coli K-12 = assay: as above; format: cell-based; details: E. coli K-12, broth microdilution, 24 h
Protocol: as §2, §3

[4] = tested on: Carnobacterium divergens NCFB 2763; assay: as above; format: cell-based; details: C. divergens
Protocol: as §2, §3

[5] = tested on: Listeria monocytogenes 10403S; assay: as above; format: cell-based; details: L. monocytogenes, 24 h
Protocol: as §2, §3

[6] = tested on: Brochothrix thermosphacta NCDO 1676; assay: as above; format: cell-based; details: food preservatives, 24 h
Protocol: as §2, §3

Bacillus cereus MR59 = assay: as above; format: cell-based; details: 24 h
Protocol: as §2, §3

[7] = tested on: Leuconostoc mesenteroides NCIMB 08023; assay: as above; format: cell-based; details: 24 h
Protocol: as §2, §3

[8] = tested on: Salmonella enterica NCTC 5188; assay: as above; format: cell-based; details: NCTC5188, S. enterica, 24 h
Vero cells = details: cited from earlier work; for IC50 cytotoxicity group, Vero cells: published IC50, MTT, ref literature review and EFSA database (Figure 4)
Caco-2 cells [9] = details: cited from earlier work; for IC50 cytotoxicity group, Caco cells: published IC50, MTT, ref literature review and EFSA database (Figure 4); for IC50: Caco-2 cells, ref Zhao et al.
Vero SF cells = assay: Cytotoxicity assay (CCK8, WST-8)
Protocol: The Vero SF cells line is recommended by EFSA to assess the toxigenic potential of Bacillus species used in animal nutrition ([EFSA, 2014]). Cells were cultured in Dulbecco’s modified Eagle’s medium supplemented with 10% FCS, 1% glutamine, and 1% penicillin-streptomycin. After 48 h, cell culture medium was replaced by fresh medium containing the tested compounds in various concentrations.
Cytotoxicity was determined through a commercial kit from SIGMA Aldrich (Saint-Louis, United States) named Cell Counting kit 8 (CCK8). This test is based on the water-soluble tetrazolium salt (WST-8) reduction by the dehydrogenase of the living cells only inducing the production of a yellow color formazan dye which is directly proportional to the number of cells. Twenty-four hours after addition the compounds, the WST-8 was added to the medium (100 μL/mL). After 2h incubation, absorption at […] was measured in a microplate-reader (Microplates reader SpectraMax® iD3, Molecular Devices, San Jose, United States) and values were expressed as percent of control.
As explained above, since some of the lipopeptides have limited solubility in aqueous solutions, prior to their cytotoxicity testing, the effect of the DMSO at the levels used to solubilize the lipopeptides, was assessed. […]

R. stolonifer = tested on: R. stolonifer; parameters: method as in Liu et al., 2014; details: ref Liu et al., 2014; cited from earlier work
Caco-2 cells [10] = tested on: Caco-2 cells
Caco-2 cells [11] = assay: Cytotoxicity assay (CCK8, WST-8); details: estimated IC50 of this study, 24 h of contact
C. divergens = assay: Nisin-lipopeptide combinations, broth microdilution checkerboard panel; format: cell-based, Carnobacterium divergens; details: regardless of the surfactin concentrations; data not shown
Excerpt: For testing the antibacterial activity by combining nisin and lipopeptides, the broth microdilution assay described above was used, following the broth microdilution checkerboard panel ([Schwalbe et al., 2007]).

Escherichia coli = tested on: Escherichia coli; parameters: method as in Dhanarajan et al., 2016; details: purified surfactin homologues; ref Dhanarajan et al., 2016; cited from earlier work
[12] = nisin alone, lipopeptide alone, or lipopeptide with nisin at fixed 10 mg/L

C[C@@H]1[C@H](O)[C@@H](C)/C=C/C=C/C=C/C=C/C=C/C=C/C=C/[C@H](O[C@@H]2O[C@H](C)[C@@H](O)[C@H](N)[C@@H]2O)C[C@@H]2O[C@](O)(C[C@@H](O)C[C@@H](O)[C@H](O)CC[C@@H](O)C[C@@H](O)CC(=O)O[C@H]1C)C[C@H](O)[C@H]2C(=O)O [Amphotericin B, amphotericin B]
MIC ([1]; Rhizopus stolonifer, IMI017314, 168 h, 7 days of growth, RPMI-1640 liquid media, read-out: R. stolonifer MIC): 0.5 µg/mL (≈ 0.541 µM) | MIC (Paecilomyces variotii; Paecilomyces variotii, 168 h, 7 days of growth, RPMI-1640 liquid media, read-out: P. variotii MIC): 0.06 µg/mL (≈ 0.0649 µM) | MIC ([2]; Paecilomyces fulvus, IMI040021, 168 h, 7 days of growth, RPMI-1640 liquid media, read-out: B. fulva MIC): 0.06 µg/mL (≈ 0.0649 µM) | MIC (Candida krusei ATCC 6258; 24 h growth, read-out: MIC (mg/L) 24h): 0.5 mg/L (≈ 0.541 µM) | MIC (Candida krusei ATCC 6258; 48 h growth, read-out: MIC (mg/L) 48h): 0.5 mg/L (≈ 0.541 µM)

O=C(O)CN(CCN(CC(=O)O)CC(=O)O)CC(=O)O [EDTA, ethylenediaminetetraacetic acid]
MIC (Gram-positive bacteria): 190 µM to 780 µM and 55.6 µg/mL to 228 µg/mL | MIC ([3]; Pseudomonas aeruginosa, NCTC10332, P. aeruginosa, read-out: MIC): 7310 µg/mL (≈ 25000 µM) | MIC (Escherichia coli K-12; Escherichia coli, K12, read-out: MIC): 14.6 mg/mL (≈ 50000 µM) | MIC ([4]; Carnobacterium divergens, NCFB2763, food preservatives, broth microdilution, 24 h, read-out: MIC): 55.6 µg/mL | MIC ([5]; Listeria monocytogenes, 10403S, read-out: MIC): 228 µg/mL (≈ 780 µM) | MIC ([6]; Brochothrix thermosphacta, NCDO1676, B. thermosphacta, read-out: MIC): 114 µg/mL (≈ 390 µM) | MIC (Bacillus cereus MR59; Bacillus cereus, MR59, B. cereus, read-out: MIC): 228 µg/mL (≈ 780 µM) | MIC ([7]; Leuconostoc mesenteroides, NCIMB08023, L. mesenteroides, read-out: MIC): 114 µg/mL (≈ 390 µM) | MIC [8]: 14.6 mg/mL (≈ 50000 µM)

Cc1ccc(C(C)C)cc1O [carvacol]
IC50 cytotoxicity group, Vero cells (Vero cells): group 2 (group 2 with moderate cytotoxicity with IC50s between 10 and 100 mg/L) | IC50 cytotoxicity group, Caco cells (Caco-2 cells [9]): group 2 (group 2 with moderate cytotoxicity with IC50s between 10 and 100 mg/L)

C=O [formaldehyde (E240), formaldehyde]
IC50 cytotoxicity group, Vero cells (Vero cells): group 3 (group three with significant cytotoxicity with IC50 lower than 10 mg/L) | IC50 cytotoxicity group, Caco cells (Caco-2 cells [9]): group three (group three with significant cytotoxicity with IC50 lower than 10 mg/L)

fengycin [Fengycin (F)]
cytotoxicity compared to nisin (E234) (Vero SF cells): less cytotoxic

iturin
concentration at which growth of R. stolonifer is inhibited (R. stolonifer): 100 mg/L

iturin A
IC50 (Vero cells; Vero cells, ref EFSA Panel on Additives and Products or Substances used in Animal Feed [FEEDAP], 2017): around 16 mg/L | IC50 cytotoxicity group, Vero cells (Vero cells): group 2 (group 2 with moderate cytotoxicity with IC50s between 10 and 100 mg/L) | IC50 (Caco-2 cells [9]; 2018): 42 mg/L | IC50 (Caco-2 cells [9]; 2019): 28 mg/L | IC50 cytotoxicity group, Caco cells (Caco-2 cells [9]): group 2 (group 2 with moderate cytotoxicity with IC50s between 10 and 100 mg/L)

mycosubtilin
cytotoxicity compared to nisin (E234) (Caco-2 cells [10]): three times less cytotoxic

nisin
Lipopeptide MIC (mg/L) R. stolonifer [1, 12]: >125 mg/L | Lipopeptide MIC (mg/L) P. variotii (Paecilomyces variotii; [12]): >125 mg/L | MIC ([3]; P. aeruginosa): >107.3 µg/mL | MIC (Escherichia coli K-12): >0.1073 mg/mL | MIC ([4]; food preservatives, broth microdilution, 24 h): 3.35 µg/mL | MIC ([4]; nisin): 1 mM | MIC [5]: 6.71 µg/mL | MIC ([6]; B. thermosphacta): 0.10 to 0.20 µg/mL | MIC (Bacillus cereus MR59; B. cereus): 6.71 µg/mL | MIC ([7]; L. mesenteroides): 1.68 µg/mL | Lipopeptide MIC (mg/L) B. fulva [2, 12]: >125 mg/L | IC50 cytotoxicity group, Caco cells (Caco-2 cells [11]): group three (group three with significant cytotoxicity with IC50 lower than 10 mg/L) | MIC of nisin for C. divergens when combined with surfactin (C. divergens): 3.35 mg/L | IC50 cytotoxicity group, Vero cells (Vero SF cells; estimated IC50 of this study, 24 h of contact): group 1 (group 1 of molecules with low cytotoxicity, IC50 above 100 mg/L) | Lipopeptide MIC (mg/L) C. krusei (Candida krusei ATCC 6258; [12]): >125 mg/L

surfactin C15
MICs (Escherichia coli): 60 mg/L
